Structures are written as SMILES.

The values that follow come from ChEMBL document CHEMBL1667832, “Potent and selective cyclohexyl-derived imidazopyrazine insulin-like growth factor 1 receptor inhibitors with in vivo efficacy” (Bioorg Med Chem Lett, 2011).

Series [1] in a line: Volume of distribution at steady state in mouse at 2 mg/kg, iv. The class given is ADME, organism-based. Also on record: dose 2 mg/kg, route intravenous. Particulars: in vivo, read-out: Vdss.
The nature of series [2]: Permeability of the compound at pH 7.4 by PAMPA. It counts as ADME. Particulars: read-out: permeability.
A short description of series [3]: Cmax in mouse at 5 mg/kg, po. Also on record: dose 5 mg/kg, route oral. It counts as ADME, organism-based. Particulars: in vivo.
A short description of series [4]: Clearance in mouse at 2 mg/kg, iv. Set-up: dose 2 mg/kg, route intravenous. Particulars: in vivo. It counts as ADME, organism-based.
Series [5] in a line: Permeability of the compound at pH 5 by PAMPA. The class given is ADME. Particulars: read-out: permeability.
The nature of series [6]: Oral bioavailability in mouse at 5 mg/kg. Particulars: in vivo. The class given is ADME, organism-based.
Series [7] in a line: AUC in mouse at 5 mg/kg, po. It counts as ADME, organism-based. Set-up: dose 5 mg/kg, route oral. The following applies: plasma.
Series [8] in a line: Volume of distribution at steady state in mouse at 5 mg/kg, iv. It counts as ADME, organism-based. Set-up: dose 5 mg/kg, route intravenous. Particulars: in vivo, read-out: Vdss.
A short description of series [9]: Oral bioavailability in mouse at 25 mg/kg. The class given is ADME, organism-based. Particulars: in vivo.
The nature of series [10]: Clearance in mouse at 5 mg/kg, iv. Also on record: dose 5 mg/kg, route intravenous. It counts as ADME, organism-based. The following applies: in vivo.
A short description of series [11]: Cmax in mouse at 25 mg/kg, po. The class given is ADME, organism-based. Set-up: dose 25 mg/kg, route oral. Particulars: in vivo.
The nature of series [12]: AUC in mouse at 25 mg/kg, po. It counts as ADME, organism-based. Set-up: dose 25 mg/kg, route oral. Particulars: plasma.
Series [13] is described as follows: Physiological stability of the compound in simulated intestinal fluid assessed as formation of 4-(8-amino-1-(8-fluoro-2-phenylquinolin-7-yl)imidazo[1,5-a]pyrazin-3-yl)cyclohexanecarboxylic acid. Particulars: simulated gi fluid. It counts as physicochemical.
Another series addresses Cytochrome P450 2C19 (Homo sapiens, UniProt P33261). Kind of series: Inhibition of CYP2C19. The class given is ADME.
The target in a further series is Cytochrome P450 2D6 (Homo sapiens, UniProt P10635). The series is described as follows: Inhibition of CYP2D6. It counts as ADME.
The subject of series [14] is Mus musculus. The series is described as follows: Toxicity in human GEO cells xenografted nu/nu CD-1 mouse assessed as effect on blood glucose level at 60 mg/kg, po qd for 14 days. The class given is organism-based. Set-up: dose 60 mg/kg, route oral. The following applies: in vivo, 336 h. In general terms: Xenograft models place foreign cells or tissue in a host animal.

Series [15] in a line: Physiological stability of the compound in simulated intestinal fluids assessed as formation of 4-(8-amino-1-(8-fluoro-2-phenylquinolin-7-yl)imidazo[1,5-a]pyrazin-3-yl)cyclohexanecarboxylic acid at 2 uM. It counts as physicochemical. The following applies: simulated gi fluid.
Another series deals with Cytochrome P450 3A4 (Homo sapiens, UniProt P08684). Kind of series: Inhibition of CYP3A4. The class given is ADME.
The target of the next series is T1, Cytochrome P450 1A2 (Homo sapiens, UniProt P05177).
T1 sequence (P05177 whole entry): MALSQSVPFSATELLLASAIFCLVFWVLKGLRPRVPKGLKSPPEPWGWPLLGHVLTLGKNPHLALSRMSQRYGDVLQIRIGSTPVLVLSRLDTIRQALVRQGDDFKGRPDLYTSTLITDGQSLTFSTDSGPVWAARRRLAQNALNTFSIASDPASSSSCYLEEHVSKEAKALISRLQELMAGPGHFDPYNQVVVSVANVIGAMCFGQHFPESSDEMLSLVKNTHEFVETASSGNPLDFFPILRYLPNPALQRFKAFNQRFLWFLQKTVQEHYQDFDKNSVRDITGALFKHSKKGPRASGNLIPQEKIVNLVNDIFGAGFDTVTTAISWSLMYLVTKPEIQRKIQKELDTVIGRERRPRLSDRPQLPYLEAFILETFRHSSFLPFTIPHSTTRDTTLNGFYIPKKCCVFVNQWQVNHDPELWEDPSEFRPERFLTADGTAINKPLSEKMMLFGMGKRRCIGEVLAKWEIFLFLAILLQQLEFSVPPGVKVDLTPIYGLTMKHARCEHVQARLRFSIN
The series is described as follows: Inhibition of CYP1A2. It counts as ADME.

Series [16] deals with Mus musculus. The series is described as follows: Toxicity in human GEO cells xenografted nu/nu CD-1 mouse assessed as mortality at 60 mg/kg, po qd for 14 days. The class given is organism-based. The following applies: in vivo, 336 h. Set-up: dose 60 mg/kg, route oral.
Series [17] can be described thus: Genotoxicity in Salmonella Typhimurium by Ames test in presence of S9 fractions. It counts as toxicity, S9 Fraction. Particulars: salmonella enterica subsp. enterica serovar typhimurium. On the technique in general: In the Ames test, an excess of revertant colonies over the control signals mutagenicity.
Series [18] can be described thus: Antitumor activity against human GEO cells xenografted in nu/nu CD-1 mouse assessed as tumor growth inhibition at 60 mg/kg, po qd for 14 days. The class given is functional. Particulars: 336 h, read-out: TGI.
Series [19] can be described thus: Physiological stability of the compound in simulated gastric fluids assessed as formation of 4-(8-amino-1-(8-fluoro-2-phenylquinolin-7-yl)imidazo[1,5-a]pyrazin-3-yl)cyclohexanecarboxylic acid at 2 uM. The class given is physicochemical. The following applies: simulated gi fluid.
The target in the next series is Cytochrome P450 2C9 (Homo sapiens, UniProt P11712). Kind of series: Inhibition of CYP2C9. It counts as ADME.
Cytochrome P450 2C9, sequence (P11712 whole entry): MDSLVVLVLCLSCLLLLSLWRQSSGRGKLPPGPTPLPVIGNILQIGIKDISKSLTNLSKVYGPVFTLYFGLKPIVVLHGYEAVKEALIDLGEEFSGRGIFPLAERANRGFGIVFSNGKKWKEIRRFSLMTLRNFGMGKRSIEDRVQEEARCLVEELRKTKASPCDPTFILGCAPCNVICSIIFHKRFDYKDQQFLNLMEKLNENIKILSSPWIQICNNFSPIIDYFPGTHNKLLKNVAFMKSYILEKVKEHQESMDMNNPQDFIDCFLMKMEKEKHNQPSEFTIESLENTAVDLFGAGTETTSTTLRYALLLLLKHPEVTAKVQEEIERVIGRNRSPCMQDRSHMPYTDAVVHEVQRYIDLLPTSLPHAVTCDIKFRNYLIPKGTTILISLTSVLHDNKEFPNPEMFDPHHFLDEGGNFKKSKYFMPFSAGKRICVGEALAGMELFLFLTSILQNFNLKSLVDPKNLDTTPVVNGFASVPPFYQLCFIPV

Cytochrome P450 2D6, sequence (P10635 whole entry): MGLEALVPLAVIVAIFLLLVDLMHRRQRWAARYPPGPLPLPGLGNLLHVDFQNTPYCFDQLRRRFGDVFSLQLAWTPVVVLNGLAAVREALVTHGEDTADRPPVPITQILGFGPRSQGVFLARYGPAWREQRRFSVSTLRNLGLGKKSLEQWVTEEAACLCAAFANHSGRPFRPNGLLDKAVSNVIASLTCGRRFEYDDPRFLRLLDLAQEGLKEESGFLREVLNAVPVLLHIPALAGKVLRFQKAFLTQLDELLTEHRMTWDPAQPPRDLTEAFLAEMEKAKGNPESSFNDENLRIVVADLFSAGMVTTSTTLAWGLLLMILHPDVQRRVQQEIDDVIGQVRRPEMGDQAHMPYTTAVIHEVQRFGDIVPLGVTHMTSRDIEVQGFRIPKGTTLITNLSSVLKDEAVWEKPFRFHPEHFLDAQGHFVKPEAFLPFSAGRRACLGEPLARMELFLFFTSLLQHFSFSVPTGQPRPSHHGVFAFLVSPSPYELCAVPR
Cytochrome P450 2C19, sequence (P33261 whole entry): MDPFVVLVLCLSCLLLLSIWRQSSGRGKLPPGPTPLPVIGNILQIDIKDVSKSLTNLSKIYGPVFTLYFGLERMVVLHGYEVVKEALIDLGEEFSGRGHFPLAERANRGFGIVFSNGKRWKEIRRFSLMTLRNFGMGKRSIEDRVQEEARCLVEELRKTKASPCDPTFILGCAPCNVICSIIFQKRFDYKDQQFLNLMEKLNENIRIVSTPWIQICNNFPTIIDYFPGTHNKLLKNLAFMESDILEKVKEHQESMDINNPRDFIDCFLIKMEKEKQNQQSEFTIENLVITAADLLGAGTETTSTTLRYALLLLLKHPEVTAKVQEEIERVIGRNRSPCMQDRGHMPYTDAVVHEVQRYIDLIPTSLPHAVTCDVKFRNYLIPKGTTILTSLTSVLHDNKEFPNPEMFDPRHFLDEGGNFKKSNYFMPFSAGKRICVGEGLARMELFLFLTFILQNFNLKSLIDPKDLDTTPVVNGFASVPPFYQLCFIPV
Cytochrome P450 3A4, sequence (P08684 whole entry): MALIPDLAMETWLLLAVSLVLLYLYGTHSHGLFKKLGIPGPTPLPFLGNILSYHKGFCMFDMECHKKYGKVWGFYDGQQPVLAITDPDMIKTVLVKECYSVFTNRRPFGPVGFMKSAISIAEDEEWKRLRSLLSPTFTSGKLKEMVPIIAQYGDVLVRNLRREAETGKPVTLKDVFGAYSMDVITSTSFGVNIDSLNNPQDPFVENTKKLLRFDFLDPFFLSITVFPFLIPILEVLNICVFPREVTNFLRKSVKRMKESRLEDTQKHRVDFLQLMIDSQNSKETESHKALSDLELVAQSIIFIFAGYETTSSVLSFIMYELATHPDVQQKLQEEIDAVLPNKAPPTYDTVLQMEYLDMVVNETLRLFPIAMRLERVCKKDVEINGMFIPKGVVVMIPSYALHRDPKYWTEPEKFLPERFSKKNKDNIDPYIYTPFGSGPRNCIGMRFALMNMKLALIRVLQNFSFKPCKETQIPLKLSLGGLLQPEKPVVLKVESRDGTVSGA

For the compound `Nc1nccn2c1c(-c1ccc3ccc(-c4ccccc4)nc3c1F)nc2[C@H]1CC[C@H](CO)CC1`, the Vd in series [1] stood at 7 L/kg. The Papp in series [2] was greater than 1000 ×10⁻⁶ cm/s; in series [5] it was 880 ×10⁻⁶ cm/s. Further, in [3], the Cmax (in general, the maximum level reached in the sampled fluid or tissue) worked out at 110 nM. Also, the clearance (as a rule, the rate of elimination divided by the concentration) in [4] stood at 197 mL/min/kg. Moreover, the bioavailability (usually the share of a dose that reaches the circulation, judged against a reference dose that is usually intravenous) in [6] amounted to 23%. Moreover, the AUC (usually the area under the concentration-time curve, a measure of exposure) in [7] came to 100 ng·h/mL.

Regarding `Nc1nccn2c1c(-c1ccc3ccc(-c4ccccc4)nc3c1F)nc2[C@H]1CC[C@H](C(=O)O)CC1`, the Vd in series [8] came out at 2.8 L/kg. In addition, in series [9], the bioavailability came out at 51%. The Papp in series [2] and in series [5] was greater than 1000 ×10⁻⁶ cm/s throughout. The compound further had a clearance in series [10] of 26 mL/min/kg. Moreover, the Cmax in series [11] is 5500 nM. Also, the AUC in [12] was 7970 ng·h/mL.

For `Nc1nccn2c1c(-c1ccc3ccc(-c4ccccc4)nc3c1F)nc2[C@H]1CC[C@H](C(N)=O)CC1`, the Vd in series [8] was determined as 2.6 L/kg. Also, the bioavailability in [9] was determined as 24%. Besides, the Papp in series [2] is 63 ×10⁻⁶ cm/s; in [5], 45 ×10⁻⁶ cm/s. In [10], the clearance turned out to be 38 mL/min/kg. In series [11], this compound returned a Cmax of 1900 nM. For the same compound, the AUC in [12] is 3570 ng·h/mL.

With `Nc1nccn2c1c(-c1ccc3ccc(-c4ccccc4)nc3c1F)nc2[C@H]1CC[C@H](C(=O)Nc2nncs2)CC1`, in series [8], the Vd is 3.2 L/kg. Further, the bioavailability in series [9] was determined as 5%. Also, the Stability result in series [13] is listed as “Unstable”. Moreover, the Papp in series [2] came out at 86 ×10⁻⁶ cm/s; in series [5], 73 ×10⁻⁶ cm/s. Moreover, the clearance in series [10] was found to be 73 mL/min/kg. The peak level in [11] (Cmax) was 130 nM. This compound showed an AUC in series [12] of 297 ng·h/mL.

`Nc1nccn2c1c(-c1ccc3ccc(-c4ccccc4)nc3c1F)nc2[C@H]1CC[C@H](C(=O)Nc2nc3ccccc3[nH]2)CC1`: the IC50 (commonly the midpoint of a concentration-inhibition curve) against Cytochrome P450 2C19 was greater than 20 µM; on Cytochrome P450 2D6, greater than 20 µM; against Cytochrome P450 3A4 it was greater than 20 µM; at Cytochrome P450 1A2, greater than 20 µM; at Cytochrome P450 2C9, 9.8 µM. Further, the Vd in [8] was determined as 0.43 L/kg. The compound further displayed a bioavailability in series [9] of 50%. In addition, the Papp in [2] was 766 ×10⁻⁶ cm/s; in series [5], 538 ×10⁻⁶ cm/s. For the same compound, the Activity entry (with Mus musculus [14]; with Mus musculus [16]; in series [17]) was “Non-toxic” throughout. Also, the Stability result in [15] and in [19] was “Stable” in each case. This compound registered a clearance in [10] of 1 mL/min/kg. The same compound displayed a Cmax in series [11] of 28000 nM. The compound further came in with an AUC in [12] of 158000 ng·h/mL. Also, the inhibition in vivo at 60 mg/kg in series [18] is 98%.
